ChEMBL document CHEMBL1152223, “Analogues of 2-phenyl-ethenesulfonic acid phenyl ester have dual functions of inhibiting expression of inducible nitric oxide synthase and activating peroxisome proliferator-activated receptor gamma” (Bioorg Med Chem Lett, 2008)
The source made the active and inactive calls. The rule behind the calls is not given here.

What was measured:
[1] = tested on: RAW264.7; assay: Suppression of LPS/IFN-gamma-stimulated NO production in mouse RAW264.7 cells at 10 uM; assay type: functional
[2] = tested on: RAW264.7; assay: Inhibition of iNOS expression in LPS/IFN-gamma-stimulated mouse RAW264.7 cells at 10 uM; assay type: functional, cell-based
[3] = tested on: RAW264.7; assay: Inhibition of iNOS expression in LPS/IFN-gamma-stimulated mouse RAW264.7 cells at 5 uM; assay type: functional, cell-based
[4] = Cytotoxicity against mouse RAW264.7 cells; assay type: cell-based
[5] = tested on: RAW264.7; assay: Suppression of LPS/IFN-gamma-stimulated NO production in mouse RAW264.7 cells; assay type: functional, cell-based
[6] = target: T1, Peroxisome proliferator-activated receptor gamma (Homo sapiens, UniProt P37231); assay: Displacement of [3H]BRL49653 from PPARgamma ligand binding domain by scintillation proximity assay
T1 sequence (P37231 whole entry): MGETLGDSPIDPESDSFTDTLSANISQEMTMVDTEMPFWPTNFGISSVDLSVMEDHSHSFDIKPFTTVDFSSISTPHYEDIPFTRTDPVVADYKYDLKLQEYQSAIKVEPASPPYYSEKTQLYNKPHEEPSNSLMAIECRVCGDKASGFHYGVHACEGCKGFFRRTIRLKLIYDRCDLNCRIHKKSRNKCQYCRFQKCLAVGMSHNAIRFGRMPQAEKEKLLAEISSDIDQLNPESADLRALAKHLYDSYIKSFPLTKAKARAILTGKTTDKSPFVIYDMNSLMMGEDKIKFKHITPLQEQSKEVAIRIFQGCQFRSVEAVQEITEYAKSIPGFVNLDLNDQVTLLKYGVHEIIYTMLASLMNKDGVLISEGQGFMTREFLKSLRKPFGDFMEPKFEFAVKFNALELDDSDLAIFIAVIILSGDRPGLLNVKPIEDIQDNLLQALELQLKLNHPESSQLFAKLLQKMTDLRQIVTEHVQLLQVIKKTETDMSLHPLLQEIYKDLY

IC50 [5] | IC50 [6] | Structure (SMILES) | Activity [1] | GI50 [4] | also measured
– | – | COc1cccc(NS(=O)(=O)/C=C/c2ccccc2)c1 | 12% | – | –
2.77 µM | 0.407 µM | Cc1ccc(OS(=O)(=O)/C=C/c2ccccc2)cc1 | – | > 80 µM | Activity [2]: Active; Activity [3]: Active
9.3 µM | 0.703 µM | O=S(=O)(/C=C/c1ccccc1)Oc1ccc(OCc2ccccc2)cc1 | – | > 80 µM | Activity [2]: Active; Activity [3]: Active
6.18 µM | 1.09 µM | O=S(=O)(/C=C/c1ccccc1)Oc1ccc2ccccc2c1 | – | > 80 µM | –
– | – | NS(=O)(=O)c1ccc(NS(=O)(=O)/C=C/c2ccccc2)cc1 | 0% | – | –
– | – | O=C(O)c1cccc(NS(=O)(=O)/C=C/c2ccccc2)c1 | 1% | – | –
9.88 µM | 0.747 µM | CCOC(=O)c1ccc(OS(=O)(=O)/C=C/c2ccccc2)cc1 | – | > 80 µM | –
– | – | O=S(=O)(CCc1ccccc1)Oc1c(Cl)cc(Cl)cc1Cl | 10% | – | –
– | – | O=S(=O)(Cc1ccccc1)Oc1ccc2ccccc2c1 | 7% | – | –
9.72 µM | 2.1 µM | O=Cc1ccc(OS(=O)(=O)/C=C/c2ccccc2)cc1 | – | > 80 µM | Activity [2]: Active; Activity [3]: Active
– | – | O=C(O)c1ccc(NS(=O)(=O)/C=C/c2ccccc2)cc1 | 2% | – | –
– | – | Cc1cccc(OS(=O)(=O)CCc2ccccc2)c1 | 0% | – | –
21.6 µM | 13.5 µM | O=C(O)c1cccc(OS(=O)(=O)/C=C/c2ccccc2)c1 | – | > 80 µM | –
– | – | O=S(=O)(CCc1ccccc1)Oc1ccccc1 | 2% | – | –
– | – | O=S(=O)(/C=C/c1ccccc1)Nc1ccccc1 | 4% | – | –
– | – | O=S(=O)(/C=C/c1ccccc1)Nc1ccc(Br)cc1 | 5% | – | –

IC50 [5] | IC50 [6] | Structure (SMILES) | Activity [1] | GI50 [4] | also measured
6.66 µM | 1.33 µM | O=S(=O)(/C=C/c1ccccc1)Oc1ccccc1 | – | > 80 µM | Activity [2]: Active; Activity [3]: Active
– | – | O=S(=O)(CCc1ccccc1)Oc1ccc2ccccc2c1 | 6% | – | –
7.45 µM | 1.29 µM | COc1ccc(OS(=O)(=O)/C=C/c2ccccc2)cc1 | – | – | –
19.9 µM | 10.7 µM | CC(=O)Nc1ccc(OS(=O)(=O)/C=C/c2ccccc2)cc1 | – | > 80 µM | –
– | – | CCS(=O)(=O)Oc1cccc(Oc2ccccc2)c1 | 11% | – | –
17.5 µM | – | CN(CCOc1ccc(CC2SC(=O)NC2=O)cc1)c1ccccn1 (stereo unspecified) [ROSIGLITAZONE] | – | – | –
– | – | COc1ccc(NS(=O)(=O)/C=C/c2ccccc2)cc1 | 5% | – | –
3.45 µM | 1.19 µM | Cc1cccc(OS(=O)(=O)/C=C/c2ccccc2)c1 | – | 62.5 µM | –
– | – | O=S(=O)(Cc1ccccc1)Oc1ccccc1 [PHENYL PHENYLMETHANESULFONATE] | 3% | – | –
– | – | O=C(O)c1cccc(OS(=O)(=O)CCc2ccccc2)c1 | 6% | – | –
– | – | CCOc1ccc(NS(=O)(=O)/C=C/c2ccccc2)cc1 | 0% | – | –
– | – | O=S(=O)(Cc1ccccc1)Oc1ccccc1Cl | 0% | – | –
– | – | Cc1ccc(NS(=O)(=O)/C=C/c2ccccc2)cc1 | 8% | – | –
2.2 µM | – | CCCCC/C=C/C=C1/C(=O)C=C[C@@H]1C/C=C\CCCC(=O)O | – | – | Activity [2]: Active; Activity [3]: Active
1.83 µM | 1.44 µM | O=S(=O)(/C=C/c1ccccc1)Oc1c(Cl)cc(Cl)cc1Cl | – | > 80 µM | Activity [2]: Active; Activity [3]: Active
– | – | O=S(=O)(CCc1ccccc1)Oc1ccc(Cl)cc1 | 4% | – | –

Structure (SMILES) | IC50 [5] | IC50 [6] | Activity [1] | GI50 [4] | also measured
O=S(=O)(/C=C/c1ccccc1)Oc1cccc(Oc2ccccc2)c1 | 16.2 µM | 0.382 µM | – | > 80 µM | –
O=S(=O)(/C=C/c1ccccc1)Oc1ccc(Cl)cc1 | 2.35 µM | 0.302 µM | – | 75.3 µM | –
